Read-outs that look alike come from different tables or passages of the source.

Results on one compound are retold here after PMC3726599, “A Metabolically-Stabilized Phosphonate Analog of Lysophosphatidic Acid Attenuates Collagen-Induced Arthritis” (PLoS ONE, 2013).

For the experiment, the system named is LPA production in whole blood. The experiment is described as follows: LPA and LPC levels in whole blood ex vivo (HPLC-MS/MS). The arrangement: species or system mouse. The method, then:
BrP-LPA, LPA species (C14:0, C16:0, C18:0, C18:1 and C20:4) and LPC species (C14:0, C16:0, C18:0, C18:1 and C20:0) were measured in plasma with HPLC-ESI/MS/MS using RSLCnano system (Ultimate 3000) coupled in-line with an LTQ Orbitrap XL mass spectrometer (Thermo Scientific, Waltham, MA, USA). BrP-LPA and lipid (LPA, LPC) extraction from plasma was performed on ice according to the Folch method with minor modifications. Plasma samples (50 ul) were mixed with 950 ul PBS prior to extraction and spiked with the internal standard mix (17:1 LPA/LPC). Samples were extracted under neutral conditions with 4 ml of ice-cold CHCl3/CH3OH (2/1, v/v) followed by 2 ml of PBS-saturated ice-cold CHCl3/CH3OH (2/1, v/v). Each extraction step was followed by a 60 s vortex and a 1 min centrifugation step in a bench-top clinical centrifuge in a cold room at 4°C at 3,000 rpm. The lower chloroform organic phases from both neutral extraction steps were pooled and kept for LPC measurement. The remained aqueous phase was chilled on ice for 10 min and extracted twice with ice-cold acidified with acetic acid CHCl3/CH3OH (2/1, v/v) as above. The lower organic phases were pooled, neutralized to pH 6–7 (checked with pH paper as above) on ice and kept for LPA, BrP-LPA measurements. The kept neutral lower organic phase of neutral extraction and the neutralized acidified lower organic phase were evaporated to dryness. The resulting residues were resuspended in 0.15 ml of isopropanol and after brief vortex mixing the solution was transferred to the auto sampler vial. Recovery of LPA species was between 60% and 95%. Recovery of BrP-LPA was 70% and the recovery of LPC species was between 80% and 100%. The Relative Standard Deviation (RSD) was less than 7% from the plasma fortified with three different concentrations (0.1, 0.5 and 1 μΜ) of LPAs, (0.1, 1 and 10 μΜ) of BrP-LPA and (0.5, 5 and 50 μΜ) of LPCs. Analysis was performed using a Phenomenex (Phenomenex, Torrance, CA, USA) Luna Silica column (2–250 mm, 5 μm particle size) using a binary gradient program consisting of isopropanol:hexane:100 mM NH4CO2H(aq) 58:40:2 (mobile phase A) and isopropanol:hexane:100 mM NH4CO2H(aq) 50:40:10 (mobile phase B). The mobile phase was delivered at a flow rate of 0.3 ml/min and the total run time was 50 min/sample. The analysis was performed with electrospray ionization in negative SIM (Single Ion Monitoring) mode for LPA species and BrP-LPA and in positive mode for LPC species (data dependent MS/MS). The resolution was 100 K providing high accuracy for lysophospholipid measurements. Data were collected and processed with the Xcalibur software (Thermo Scientific). The precursor ion mass was used for the quantification while lipid identity was confirmed by precursor ion fragmentation using collision induced dissociation (CID). The peak area ratios (lipid/internal standard) versus the molar ratios (lipid/internal standard) were plotted and fitted to a linear regression. The linear dynamic range of LPA species and BrP-LPA was between 0.01 μM and 10 μΜ.
The inhibition model (competitive, noncompetitive, or mixed type inhibition) was evaluated by graphical analysis with Lineweaver–Burk double reciprocal plots (1/[velocity] versus 1/[substrate]) and Cornish-Bowden plot ([substrate]/[velocity] versus [Inhibitor]). These plots were generated by the measurement of ATX activity in the presence of different BrP-LPA concentrations (0–10 μΜ) and increased amounts of 16:0 LPC (100, 200, 400 μΜ). The inhibition constants (Ki) and IC50 values were determined using the mean values obtained from two independent experiments. The relative remaining ATX activity or LPA levels in the presence of the BrP-LPA was expressed as a percentage of the corresponding control value (ATX activity, LPA levels without inhibitor). […]

Broadly, the IC50 is the midpoint of a concentration-inhibition curve. Consider `CCCCCCCCCCCCCCCC(=O)OC[C@@H](O)CC(Br)P(=O)(O)O` (stereo partly drawn) [BrP-LPA, 1-bromo-3(S)-hydroxy-4-(palmitoyloxy)butyl-phosphonate], for which the “reduction of 18:0 LPA levels” value (BrP-LPA 10 μM) stood at 97%. Moreover, the “reduction of total LPA levels” value (BrP-LPA 10 μM) is 86%. Further, the IC50 is 1340 nM (read-out: IC50, production of 16:0 LPA); 300 nM (read-out: IC50, production of 18:0 LPA); 1520 nM (read-out: IC50, production of 18:1 LPA); 559 nM (read-out: IC50, production of 20:4 LPA). Further, under “upon addition of BrP-LPA”, the “endogenous LPC levels” value is recorded as “no significant changes”.
